Patent US8778964B2, “Hydroxy-substituted imidazo[1,2-a]-pyridinecarboxamides and their use” (Bayer Pharma Aktiengesellschaft, priority 2012, dated 2014)
Where a name gives a salt, the structure may show the parent alone.

Test system: recombinant guanylate cyclase reporter cell line
Assay: Action on recombinant guanylate cyclase reporter cell line (MEC)
Format: cell-based
Conditions: in some cases mean values obtained from individual determinations
Protocol: B-2. Action on Recombinant Guanylate Cyclase Reporter Cell Line
The cellular action of the compounds according to the invention is determined on a recombinant guanylate cyclase reporter cell line, as described in F. Wunder et al., Anal. Biochem. 339, 104-112 (2005).
Representative values (MEC=minimal effective concentration) for the compounds according to the invention are shown in the following table (in some cases as mean values obtained from individual determinations): […]

Going from Cc1nc2c(OCC3CCCCC3)cccn2c1C(=O)N[C@H]1CCC[C@@H]1O (racemic) [Example 71, (rac)-8-(cyclohexylmethoxy)-N-[trans-2-hydroxycyclopentyl]-2-methylimidazo[1,2-a]-pyridine-3-carboxamide] to Cc1nc2c(OCC3CCCCC3)cccn2c1C(=O)NC1CCCC1O (stereo not drawn) [Example 83, 8-(cyclohexylmethoxy)-N-(2-hydroxycyclopentyl)-2-methylimidazo[1,2-a]pyridine-3-carboxamide], the minimal effective concentration rises from 0.1 µM to 0.3 µM (3-fold).

First: Cc1nc2c(OCc3c(F)cccc3F)cccn2c1C(=O)NC(CO)CCCC(F)(F)F (single isomer, unassigned; ent-8) [Example 123, ent-8-[(2,6-Difluorobenzyl)oxy]-2-methyl-N-(6,6,6-trifluoro-1-hydroxyhexan-2-yl)imidazo[1,2-a]-pyridine-3-carboxamide]
Second: Cc1nc2c(OCc3c(F)cccc3F)cccn2c1C(=O)N[C@@H](CO)CC[C@@H](O)C(F)(F)F [Example 135, 8-[(2,6-difluorobenzyl)oxy]-2-methyl-N-[(2R, 5R)-6,6,6-trifluoro-1,5-dihydroxyhexan-2-yl]imidazo[1,2-a]pyridine-3-carboxamide trifluoroacetate (1:1)]
The minimal effective concentration of the first is 3.3-fold lower: 0.03 µM for the first, 0.1 µM for the second.

First: CCc1nc2c(OCC3CCCCC3)cccn2c1C(=O)N[C@H](C)CO [Example 55, 8-(Cyclohexylmethoxy)-2-ethyl-N-[(2R)-1-hydroxypropan-2-yl]imidazo[1,2-a]pyridine-3-carboxamide formic acid salt]
Second: CCC[C@@H](CO)NC(=O)c1c(C)nc2c(OCC3CCCCC3)cccn12 [Example 89, 8-(cyclohexylmethoxy)-N-[(2S)-1-hydroxypentan-2-yl]-2-methylimidazo[1,2-a]pyridine-3-carboxamide]
The minimal effective concentration of the first is 10-fold lower: 0.1 µM for the first, 1 µM for the second.

First: C[C@@H](CO)NC(=O)c1cnc2c(OCC3CCCCC3)cccn12 [Example 59, 8-(cyclohexylmethoxy)-N-[(2S)-1-hydroxypropan-2-yl]imidazo[1,2-a]pyridine-3-carboxamide]
Second: Cc1nc2c(OCc3c(F)cccc3F)cccn2c1C(=O)N[C@H](C)CO [Example 118, 8-[(2,6-difluorobenzyl)oxy]-N-[(2R)-1-hydroxypropan-2-yl]-2-methylimidazo[1,2-a]-pyridine-3-carboxamide]
The minimal effective concentration of the first is 10-fold higher: 3 µM for the first, 0.3 µM for the second.

Compared with Cc1nc2c(OCc3c(F)cccc3F)cccn2c1C(=O)NC(CO)CO [Example 26, 8-[(2,6-difluorobenzyl)oxy]-N-(1,3-dihydroxy-propan-2-yl)-2-methylimidazo[1,2-a]pyridine-3-carboxamide], Cc1nc2c(OCc3c(F)cccc3F)cccn2c1C(=O)NCC(O)C(F)(F)F (single isomer, unassigned; ent-8) [Example 109, ent-8-[(2,6-Difluorobenzyl)oxy]-2-methyl-N-(3,3,3-trifluoro-2-hydroxypropyl)imidazo[1,2-a]-pyridine-3-carboxamide] is 20-fold lower in minimal effective concentration: 2 µM for the first, 0.1 µM for the second.

Going from Cc1nc2c(OCc3c(F)cccc3F)cccn2c1C(=O)NC(CCC(F)(F)F)C(C)(C)O (single isomer, unassigned; ent-8) [Example 155, ent-8-[(2,6-Difluorobenzyl)oxy]-2-methyl-N-(6,6,6-trifluoro-2-hydroxy-2-methylhexan-3-yl)-imidazo[1,2-a]pyridine-3-carboxamide (enantiomer B)] to CCCCC(NC(=O)c1c(C)nc2c(OC(C)c3c(F)cccc3F)cc(C)cn12)C(C)(C)O (single isomer, unassigned; ent-8) [Example 171, ent-8-[1-(2,6-Difluorophenyl)ethoxy]-N-(2-hydroxy-2-methylheptan-3-yl)-2,6-dimethylimidazo-[1,2-a]pyridine-3-carboxamide], the minimal effective concentration rises from 0.1 µM to 1 µM (10-fold).
